Consider 2 compounds from US12521350B2, “Liquid crystalline dosage form for administering a statin” (CUBOPHARM PTY LTD, priority 2017, dated 2026).

The nature of data set [1]: In vitro release/permeation of rosuvastatin through porcine buccal mucosa in modified Ussing chambers. Format: in vitro ADME, pigs. The protocol:
Porcine buccal mucosa was freshly isolated from pigs cheeks, mounted between modified Ussing chambers with a donor chamber, receptor chamber and the porcine buccal mucosa in between with a diffusional area of 0.64 cm^2, and incubated in Krebs bicarbonate Ringer buffer (KBR, pH 7.4) for 30 min. The mixture or tablet containing rosuvastatin (supplied by Aspen Pharmacare Australia) were applied to the porcine buccal mucosa (ie in the donor chamber) and, when necessary, Parafilm was applied to cover the formulation (ie for tablets and for mixtures containing glyceryl monooleate (GMO) and rosuvastatin). The Parafilm prevented the various formulations from detaching from the buccal mucosa. KBR buffer (1.5 mL) was then added to both the donor and receptor chambers, and receptor samples (200 μL) were collected from the receptor chamber at various time points up to 4-5 hours to determine the amount of rosuvastatin that passed through the porcine buccal mucosa to the receptor chamber. 200 μL of fresh KBR was dispensed into the receptor chamber after each collection (to ensure volume balance). Receptor chamber samples were provided to Aspen Pharmacare Australia for quantification of rosuvastatin by HPLC.
Positive control was tested by making rosuvastatin solutions of 0.4 and 0.8 mg/1.5 ml KBR solution, equivalent to 1:[…] ODT's. […]

The test system of the next data set is human subjects. The data set can be described thus: Blood lipid changes after three single 5 mg rosuvastatin doses (Example 7). It counts as in vivo. An excerpt: Each participant was given a single dose of medication on separate occasions after appropriate wash-out periods. […]
For data set [2] the following is noted: 10 mg, after 6 weeks therapy; cited from earlier work.
[3] abbreviates: Mean of 3 subjects, three single 5 mg doses.
Setting [4] is: Person (buccal dosing), three single 5 mg doses.
Setting [5] is: Person one (sublingual dosing), three single 5 mg doses.
Setting [6] is: Person two (sublingual dosing), three single 5 mg doses.
The mark [7] stands for this setting: after three single 5 mg rosuvastatin doses.

With `CC(C)c1nc(N(C)S(C)(=O)=O)nc(-c2ccc(F)cc2)c1/C=C/[C@@H](O)C[C@@H](O)CC(=O)O` [rosuvastatin], the “Total rosuvastatin absorbed per minute” value in data set [1] (positive control solution 0.4 mg/1.5 ml KBR, equivalent to 1:1 ODT) is 0.6 ng/mL. Also, the “Total rosuvastatin absorbed per minute” value in data set [1] (positive control solution 0.8 mg/1.5 ml KBR, equivalent to 7:1 ODT) came out at 0.3 ng/mL. In the data set on human subjects (setting [3]), the “% change in HDL” value was found to be 4.8%, the “% change in LDL” value is given as −26.54%, the “% change in Triglycerides” value is −7.91% and the “% change in total cholesterol” value is given as −16.8%. Moreover, in the data set with human subjects (setting [4]), the “% change in HDL” value turned out to be 5.9%, the “% change in LDL” value is −35.7%, the “% change in Triglycerides” value came out at 20.0% and the “% change in total cholesterol” value is −20.3%. Further, in the data set on human subjects (setting [5]), the “% change in HDL” value is listed as −5.9%, the “% change in LDL” value is reported as −21.05%, the “% change in Triglycerides” value was −37.5% and the “% change in total cholesterol” value is −17.5%. Also, the “% change in total cholesterol” value in the data set on human subjects (Person two (sublingual dosing), after 5 mg Crestor, 5 mg 1:1 tablet and 5 mg 7:1 tablet on consecutive days) was −12.7%. For the same compound, in the data set with human subjects (setting [6]), the “% change in HDL” value is 14.3%, the “% change in LDL” value is −22.9% and the “% change in Triglycerides” value is −16.6%. Moreover, in the data set with human subjects (setting [7]), the “increase of HDL” value is given as 5%, the “reduction of low density lipoproteins (LDL-C)” value turned out to be 27% and the “reduction of total cholesterol (TC)” value is reported as 17%.
Take `CC(C)c1c(C(=O)Nc2ccccc2)c(-c2ccccc2)c(-c2ccc(F)cc2)n1CC[C@@H](O)C[C@@H](O)CC(=O)O` [atorvastatin]: the “Reductions in LDL-C” value in data set [2] is listed as 37%.
